pIC50: −log10 of the molar value.
Legend:
[1] = system: patients with chronic kidney disease anemia; experiment: Phase 2 clinical trial in patients with chronic kidney disease anemia (hemoglobin, adverse events); format: in vivo, human; conditions: for mean rate of hemoglobin increase: end of dose-fixing period (5 weeks); for mean hemoglobin level: Weeks 6-14 (entire titration period); for cumulative percentage of patients achieving target hemoglobin range 10.0-11.0 g/dL and increase of ≥1.0 g/dL from baseline: entire 13-week treatment period; for TEAE, % of patients / TEAE, NE (total number of adverse events) / TEAE, n (number of patients experiencing adverse events) / Treatment-related TEAE, % of patients / Treatment-related TEAE, NE (total number of adverse events) / Treatment-related TEAE, n (number of patients experiencing adverse events): titration period
Protocol: A Phase 2, randomized, double-blind, placebo-controlled clinical study of Comp-1 in patients with chronic kidney disease anemia included a total treatment period of 13 weeks, divided into an initial 5-week dose-fixing period and a subsequent 8-week dose adjustment period (also referred to as the titration period). A total of 113 patients with renal anemia were initially randomized into the dose-fixing period. During the dose-fixing period, patients with renal anemia received Comp-1 8 mg, 12 mg, or 16 mg three times weekly (TIW), or a matching placebo. At the Week 6 study visit, a total of 44 eligible patients underwent a second randomization into the dose adjustment period (titration period). […] The starting dose in this phase was the same as the dose during the dose-fixing period and could be adjusted based on weekly hemoglobin values to maintain hemoglobin within the target range of 10.0-11.0 g/dL, inclusive. To maintain blinding, patients in the placebo group underwent pseudo-randomization and continued to receive matching placebo. During the study, patients were visited weekly to measure the primary efficacy indicator, i.e. hemoglobin level, and safety comparisons were made for patients entering the titration period according to dosing frequency (three times weekly (TIW) dosing vs. once weekly (QW) dosing).
The primary efficacy objective of the study was to compare the mean rate of hemoglobin increase (g/dL/week) at the end of the dose-fixing period (i.e., after 5 weeks of dosing) between the three Comp-1 dose groups and the placebo group. […] In the analysis of hemoglobin during the adjustment period (titration period), at Week 14 (i.e., at the end of the titration period or after 13 weeks of dosing), the mean levels of hemoglobin in the pooled Comp-1 TIW group and QW group were 10.74 g/dL and 10.09 g/dL, respectively, both maintained within the study target range of 10.0-11.0 g/dL inclusive, while the mean level of hemoglobin in the placebo group was 9.57 g/dL. During the later part of the adjustment period (titration period), i.e., Weeks 10-14, the mean levels of hemoglobin were >10.0 g/dL in all dose frequency groups including the placebo group: 10.73 g/dL and 10.77 g/dL in the pooled Comp-1 TIW and QW groups, respectively, and 10.26 g/dL in the placebo group. The change in hemoglobin level from baseline was 1.60 g/dL and 1.63 g/dL in the pooled Comp-1 TIW and QW groups, respectively, and 0.48 g/dL in the placebo group. […] In the analysis of hemoglobin throughout the entire adjustment period (titration period), i.e., Weeks 6-14, the mean hemoglobin levels in the pooled Comp-1 TIW and QW groups were 10.84 g/dL and 10.91 g/dL, respectively, compared to 10.23 g/dL in the placebo group. […] Throughout the entire 13-week treatment period, the cumulative percentage of patients achieving the target hemoglobin range of 10.0-11.0 g/dL inclusive and an increase of ≥1.0 g/dL from baseline was similar between the pooled Comp-1 TIW and QW groups: 100% and 90%, respectively, compared to 40% in the placebo group. Table 3 below provides a safety comparison for patients entering the titration period according to dosing frequency.
TEAE: treatment emergent adverse event; Treatment-related TEAE: treatment emergent adverse event considered related to treatment; N: number of patients; NE: total number of adverse events occurring; n: number of patients experiencing adverse events.

HIF PHD-2 = biological target: T1, HIF PHD-2 (Homo sapiens, UniProt Q9GZT9); experiment: Inhibitory effect on HIF PHD-2 (HIF-1α peptide hydroxylation, HPLC); format: biochemical; conditions: PHD2 enzyme, 30° C., 2 hours, read-out: IC50 against HIF PHD-2
T1 construct: purchased Active Motif
T1 sequence (Q9GZT9 whole entry): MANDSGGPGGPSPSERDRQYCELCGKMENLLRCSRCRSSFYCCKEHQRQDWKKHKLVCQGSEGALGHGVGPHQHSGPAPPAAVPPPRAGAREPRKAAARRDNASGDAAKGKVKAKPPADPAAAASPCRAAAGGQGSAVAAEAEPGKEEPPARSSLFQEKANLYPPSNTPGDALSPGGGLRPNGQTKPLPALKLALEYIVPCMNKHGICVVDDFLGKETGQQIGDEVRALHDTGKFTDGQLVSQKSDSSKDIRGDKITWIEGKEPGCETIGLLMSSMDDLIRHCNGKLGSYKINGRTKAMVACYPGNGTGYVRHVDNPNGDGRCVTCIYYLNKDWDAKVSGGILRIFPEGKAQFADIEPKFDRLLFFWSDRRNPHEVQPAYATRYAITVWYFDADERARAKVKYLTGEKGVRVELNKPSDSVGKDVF
Protocol: Stock solutions of the following reagents were prepared: HEPES buffer (pH 7.4, 50 mM), HIF-1α peptide (sequence: DLDLEMLAPYIPMDDDFQL; Genscript) solution in DMSO/HEPES (0.5 mM; preparation method: first prepare a 20 mM solution of this peptide in DMSO, then dilute it 40-fold with the HEPES buffer), ascorbic acid solution (10 mM), FeSO4 in hydrochloric acid solution (0.1 mM FeSO4, 10 μM HCl), 2-oxoglutaric acid solution (2-OG: 1 mM), EDTA solution (pH 8.0; 0.5 M), and eight concentrations of Comp-1/DMSO solutions (concentrations: 4000 μM, 1333 μM, 444.4 μM, 148.1 μM, 49.4 μM, 16.5 μM, 5.5 μM, and 1.82 μM). The following reagents were added to nine Eppendorf tubes: 50 μL HEPES solution, 10 μL ascorbic acid solution, 10 μL FeSO4 in HCl solution, 10 μL 2-OG solution, 10 μL HIF-1α peptide solution; then 5 μL of each of the eight Comp-1/DMSO solutions and 5 μL of DMSO were added separately; finally, 5 μL of PHD2 enzyme (Active Motif; concentration: 0.2 μg/μL) was added to each tube. Each of the resulting reaction systems was incubated at 30° C. in dark for 2 hours. Finally, 10 μL of EDTA solution was added to each tube to terminate the reaction. […] The concentrations of HIF-peptide and hydroxylated peptide were quantified using a UV absorption detector to calculate their ratio. The IC50 was calculated using GraphPad Prism 6.0 software.

With `O=C(O)CNC(=O)C1=C(O)C2(CCCC2)n2c(ccc2-c2ccccc2)C1=O` [Comp-1, (6′-hydroxy-8′-oxo-3′-phenyl-8′H-spiro[cyclopentane-1,5′-indolizine]-7′-carbonyl)glycine] the “mean rate of hemoglobin increase” value ([1]; 8 mg TIW) was 0.2839 g/dL/week, the “mean rate of hemoglobin increase” value ([1]; 12 mg TIW) was 0.3893 g/dL/week and the “mean rate of hemoglobin increase” value ([1]; 16 mg TIW) was 0.4817 g/dL/week. For the same compound, the “mean level of hemoglobin” value ([1]; Week 14, pooled QW group) was 10.09 g/dL, the “mean level of hemoglobin” value ([1]; Week 14, pooled TIW group) was 10.74 g/dL and the mean hemoglobin level ([1]; pooled QW group) was 10.91 g/dL. The mean hemoglobin level ([1]; pooled TIW group) was 10.84 g/dL, the “change in hemoglobin from baseline” value ([1]; Weeks 6-14, pooled QW group) was 1.78 g/dL and the “change in hemoglobin from baseline” value ([1]; Weeks 6-14, pooled TIW group) was 1.71 g/dL. The “change in hemoglobin level from baseline” value ([1]; Weeks 10-14, pooled QW group) was 1.63 g/dL, the “mean level of hemoglobin” value ([1]; Weeks 10-14, pooled QW group) was 10.77 g/dL and the “change in hemoglobin level from baseline” value ([1]; Weeks 10-14, pooled TIW group) was 1.60 g/dL. The “mean level of hemoglobin” value ([1]; Weeks 10-14, pooled TIW group) was 10.73 g/dL, the “cumulative percentage of patients achieving target hemoglobin range 10.0-11.0 g/dL and increase of ≥1.0 g/dL from baseline” value ([1]; pooled QW group) was 90% and the “cumulative percentage of patients achieving target hemoglobin range 10.0-11.0 g/dL and increase of ≥1.0 g/dL from baseline” value ([1]; pooled TIW group) was 100%. The “TEAE, % of patients” value ([1]; Pooled QW, N = 20) was 70.0%, the “TEAE, NE (total number of adverse events)” value ([1]; Pooled QW, N = 20) was 18 and the “TEAE, n (number of patients experiencing adverse events)” value ([1]; Pooled QW, N = 20) was 14. The “Treatment-related TEAE, % of patients” value ([1]; Pooled QW, N = 20) was 5.0%, the “Treatment-related TEAE, NE (total number of adverse events)” value ([1]; Pooled QW, N = 20) was 1 and the “Treatment-related TEAE, n (number of patients experiencing adverse events)” value ([1]; Pooled QW, N = 20) was 1. For the same compound, the “TEAE, % of patients” value ([1]; Pooled TIW, N = 19) was 73.7%, the “TEAE, NE (total number of adverse events)” value ([1]; Pooled TIW, N = 19) was 39 and the “TEAE, n (number of patients experiencing adverse events)” value ([1]; Pooled TIW, N = 19) was 14. The “Treatment-related TEAE, % of patients” value ([1]; Pooled TIW, N = 19) was 10.5%, the “Treatment-related TEAE, NE (total number of adverse events)” value ([1]; Pooled TIW, N = 19) was 2 and the “Treatment-related TEAE, n (number of patients experiencing adverse events)” value ([1]; Pooled TIW, N = 19) was 2. For the same compound, the pIC50 (HIF PHD-2) was 5.63.

— patent publication US20260199305A1, “LONG-ACTING ORAL PHARMACEUTICAL COMPRISING HYPOXIA-INDUCIBLE FACTOR PROLYL HYDROLASE INHIBITOR AND USE THEREOF” (Kind Pharmaceutical, priority 2023, published 2026)
